Data: the supplement of paper PMC11451515

What was measured:
Conditions in all cases: 48 h
[1] = system: SEM cells; experiment: cell viability relative to DMSO control; higher = less cytotoxic
Procedure, shortened: (§1)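 Cells were incubated for 48 h at 37°C before CellTiter-Glo One luminescence was read. The cells were NOMO1 or SEM (500 cells/well) or P12-Ichikawa (1000 cells/well) leukemia cells, adapted for at least four passages in each medium and seeded in 1536-well plates (5 μl). Dosing used library compounds in DMSO applied by pin over 11 threefold points, 47 μM to 0.79 nM. Viability is the per-plate percentage of DMSO wells, with cell-free wells as background.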

[2] = system: NOMO1; experiment: as above
Procedure, shortened: as §1

[3] = system: P12-Ichikawa; experiment: as above
Procedure, shortened: as §1

[4] = system: SEM cells; experiment: AUC of viability dose-response curve (% viability x log10 dose units); higher = less sensitive
Procedure, shortened: (§2)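 Leukemia cells adapted to each medium were seeded in 1536-well plates (500 or 1000 cells/well). They were dosed with library compounds in DMSO at 11 threefold doses, 47 μM to 0.79 nM, for 48 h at 37°C. CellTiter-Glo One luminescence was normalised per plate to DMSO and cell-free wells. Area under the curve was integrated by trapezoidal rule over log10 doses on a four-parameter log-logistic fit; curves exceeding full viability were scaled and curves failing quality control removed.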

[5] = system: NOMO1; experiment: as above
Procedure, shortened: as §2

[6] = system: P12-Ichikawa; experiment: as above
Procedure, shortened: as §2

C[C@]12COC(=O)C[C@@H]1CC[C@@H]1[C@@H]2CC[C@@]2(C)[C@H]1CC[C@]2(C)O
cell viability [%]
Conditions | [1] | [2] | [3]
HPLM + 10% dialyzed FBS, 0.000781 µM | 96.4 | 98 | 105
HPLM + 10% dialyzed FBS, 0.00234 µM | 97.7 | 109 | 107
HPLM + 10% dialyzed FBS, 0.00702 µM | 95.7 | 103 | 117
HPLM + 10% dialyzed FBS, 0.0211 µM | 105 | 91.1 | 107
HPLM + 10% dialyzed FBS, 0.0632 µM | 94 | 118 | 110
HPLM + 10% dialyzed FBS, 0.19 µM | 93.3 | 98 | 102
HPLM + 10% dialyzed FBS, 0.569 µM | 85.5 | 98.6 | 107
HPLM + 10% dialyzed FBS, 1.71 µM | 96.6 | 103 | 103
HPLM + 10% dialyzed FBS, 5.12 µM | 101 | 104 | 102
HPLM + 10% dialyzed FBS, 15.4 µM | 86.3 | 97.1 | 100
HPLM + 10% dialyzed FBS, 46.1 µM | 88.4 | 80 | 88.1
RPMI 5 mM glucose + 10% FBS, 0.000781 µM | 105 | 90.7 | 106
RPMI 5 mM glucose + 10% FBS, 0.00234 µM | 110 | 87.1 | 109
RPMI 5 mM glucose + 10% FBS, 0.00702 µM | 104 | 86.4 | 101
RPMI 5 mM glucose + 10% FBS, 0.0211 µM | 100 | 97.3 | 100
RPMI 5 mM glucose + 10% FBS, 0.0632 µM | 106 | 101 | 107
RPMI 5 mM glucose + 10% FBS, 0.19 µM | 106 | 103 | 105
RPMI 5 mM glucose + 10% FBS, 0.569 µM | 105 | 95.1 | 113
RPMI 5 mM glucose + 10% FBS, 1.71 µM | 101 | 101 | 98.3
RPMI 5 mM glucose + 10% FBS, 5.12 µM | 95.9 | 90.8 | 101
RPMI 5 mM glucose + 10% FBS, 15.4 µM | 90 | 81.2 | 103
RPMI 5 mM glucose + 10% FBS, 46.1 µM | 78.4 | 84.1 | 97.4
RPMI 5 mM glucose + 10% dialyzed FBS, 0.000781 µM | 98.2 | 97.6 | 101
RPMI 5 mM glucose + 10% dialyzed FBS, 0.00234 µM | 109 | 101 | 98.6
RPMI 5 mM glucose + 10% dialyzed FBS, 0.00702 µM | 104 | 91.4 | 97.5
RPMI 5 mM glucose + 10% dialyzed FBS, 0.0211 µM | 111 | 102 | 104
RPMI 5 mM glucose + 10% dialyzed FBS, 0.0632 µM | 121 | 103 | 92.3
RPMI 5 mM glucose + 10% dialyzed FBS, 0.19 µM | 109 | 92.2 | 101
RPMI 5 mM glucose + 10% dialyzed FBS, 0.569 µM | 101 | 78.2 | 99.2
RPMI 5 mM glucose + 10% dialyzed FBS, 1.71 µM | 92 | 92 | 104
RPMI 5 mM glucose + 10% dialyzed FBS, 5.12 µM | 101 | 88.3 | 94.1
RPMI 5 mM glucose + 10% dialyzed FBS, 15.4 µM | 89.5 | 92.4 | 98.7
RPMI 5 mM glucose + 10% dialyzed FBS, 46.1 µM | 78.6 | 83.1 | 95.2

AUC of viability dose-response curve
Conditions | [4] | [5] | [6]
HPLM + 10% dialyzed FBS | 451 | 472 | 457
RPMI 5 mM glucose + 10% FBS | 457 | 443 | 463
RPMI 5 mM glucose + 10% dialyzed FBS | 447 | 443 | 471
